Data on 12 molecules can be found in US9346813B2, “Substituted pyrrolo[2,3-d]pyrimindines as CDK9 kinase inhibitors” (AbbVie Inc., priority 2014, dated 2016).

One may read the EC50 as the midpoint of the concentration-response curve. In general, IC50 refers to the concentration that gives 50% inhibition. Lower therefore signals greater potency in that assay.

For one assay, the system named is A431 cells. Nature of the assay: Cell viability assay in A431 cells (Cell TiterGlo). Type of assay: cell-based. As to conditions: Homo sapiens, A-431, 24 hours at 37° C. On the procedure:
Cell viability assays were performed using A431 or H929 cells. A431 cells were seeded in 96-well plates at 10,000 cells/well, and after overnight incubation, treated with compounds at 2-times the final concentration to result in a dose response of 3-fold dilutions from 10 μM to 0.0005 μM (50 μL/well, 0.1% final DMSO concentration). H929 cells were seeded in 96-well plates at 10,000 cells/well and treated immediately with compounds as described above. After 24 hours at 37° C., cell viability was measured using Cell TiterGlo reagent (Promega) with a luminescence reader. Alternately, cell viability assays were performed in 384-well format. A431 cells were seeded in 384-well plates at 2500 cells/well and, after overnight incubation, treated with compounds in a dose response of 3-fold dilutions from 10 μM to 0.0005 μM (25 nL/well, 0.1% final DMSO concentration). For the H929 viability assay, 25 nL/well of the compounds was dispensed into 384-well plates in a dose response as described above and cells were immediately seeded in 384-well plates at 2500 cells/well. After 24 hours at 37° C., cell viability was measured using Cell TiterGlo reagent (Promega) with a luminescence reader.
In general terms: Cellular ATP, detected with luciferase, serves as a proxy for viable cell number.

For another assay, the target named is T1, CDK9/Cyclin T1 (Homo sapiens, UniProt P50750).
T1 construct: purchased Carna Biosciences 04-110
T1 sequence (P50750 whole entry): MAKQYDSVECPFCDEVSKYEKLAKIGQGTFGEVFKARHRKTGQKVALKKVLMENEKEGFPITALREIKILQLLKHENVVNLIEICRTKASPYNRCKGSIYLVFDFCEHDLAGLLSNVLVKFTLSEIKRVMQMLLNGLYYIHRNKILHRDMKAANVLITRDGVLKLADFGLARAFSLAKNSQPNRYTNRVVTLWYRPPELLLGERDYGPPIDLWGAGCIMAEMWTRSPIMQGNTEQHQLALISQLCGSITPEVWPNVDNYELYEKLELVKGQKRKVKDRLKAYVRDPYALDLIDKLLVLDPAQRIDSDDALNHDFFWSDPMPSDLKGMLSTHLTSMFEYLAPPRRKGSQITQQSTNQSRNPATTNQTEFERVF
T1 sequence (O60563 whole entry partner): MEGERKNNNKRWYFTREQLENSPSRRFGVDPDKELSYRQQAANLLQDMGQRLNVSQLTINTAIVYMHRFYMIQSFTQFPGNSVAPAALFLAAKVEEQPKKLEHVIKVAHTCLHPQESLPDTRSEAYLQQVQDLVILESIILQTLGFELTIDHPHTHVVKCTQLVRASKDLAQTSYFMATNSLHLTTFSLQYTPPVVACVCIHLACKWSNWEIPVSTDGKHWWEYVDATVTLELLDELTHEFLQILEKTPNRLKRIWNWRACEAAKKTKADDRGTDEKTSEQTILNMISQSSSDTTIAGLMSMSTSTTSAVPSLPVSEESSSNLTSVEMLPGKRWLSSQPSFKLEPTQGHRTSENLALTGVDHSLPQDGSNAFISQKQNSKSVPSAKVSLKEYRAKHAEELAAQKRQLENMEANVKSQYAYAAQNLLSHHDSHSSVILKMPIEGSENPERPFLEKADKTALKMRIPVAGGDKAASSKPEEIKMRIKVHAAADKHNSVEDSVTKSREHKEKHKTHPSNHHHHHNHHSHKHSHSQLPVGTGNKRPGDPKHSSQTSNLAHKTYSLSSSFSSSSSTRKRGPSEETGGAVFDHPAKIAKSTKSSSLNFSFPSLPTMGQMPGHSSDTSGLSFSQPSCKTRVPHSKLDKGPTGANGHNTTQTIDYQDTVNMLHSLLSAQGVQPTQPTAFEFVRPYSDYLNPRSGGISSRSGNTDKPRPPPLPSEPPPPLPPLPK
Nature of the assay: CDK9 enzyme protocol (LANCE ULight TR-FRET kinase assay). The class given is biochemical. Conditions: 4 nM CDK9/Cyclin T1, 1000 μM ATP, 100 nM U-light MBP peptide, 30 minutes. An outline of the steps:
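Human CDK9/Cyclin T1 (4 nM) phosphorylated 100 nM ULight-MBP peptide at 1000 μM ATP for 30 min in HEPES/MgCl2/Triton buffer. The reaction was stopped with 20 mM EDTA plus 0.5 nM Eu anti-phospho-MBP antibody and equilibrated 1 h. Read-out was TR-FRET (ex 320, em 615/665 nm).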

In the next assay the test system is H929 cells. Nature of the assay: Cell viability assay in H929 cells (Cell TiterGlo). As to conditions: Homo sapiens, NCI-H929, 24 hours at 37° C. The class given is cell-based. An outline of the steps:
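Cells seeded at 10,000 (96-well) or 2500 (384-well) cells/well; A431 dosed after overnight attachment, H929 dosed at seeding. 3-fold dilutions from 10 μM to 0.0005 μM, 0.1% final DMSO. Viability read by Cell TiterGlo luminescence after 24 hours at 37° C.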

Turning to `COc1ccc(F)cc1-c1ncnc2[nH]c(C3CCNCC3)cc12` [Example 1, 4-(5-fluoro-2-methoxyphenyl)-6-(piperidin-4-yl)-7H-pyrrolo[2,3-d]pyrimidine], the EC50 with A431 cells turned out to be 100 nM. In addition, inhibition at CDK9/Cyclin T1 was half-maximal at 52 nM (IC50).

For `COc1ccc(F)cc1-c1ncnc2[nH]c(C3=CCN(C(=O)CO)CC3)cc12` [Example 7, 1-{4-[4-(5-fluoro-2-methoxyphenyl)-7H-pyrrolo[2,3-d]pyrimidin-6-yl]-3,6-dihydropyridin-1(2H)-yl}-2-hydroxyethanone], the EC50 in the assay with A431 cells was 150 nM; with H929 cells, 180 nM. The molecule further displayed a half-maximal inhibitory concentration (IC50) against CDK9/Cyclin T1 of 37 nM.

On to `COc1ccc(F)cc1-c1ncnc2[nH]c(C3=CCNCC3)cc12` [Example 3, 4-(5-fluoro-2-methoxyphenyl)-6-(1,2,3,6-tetrahydropyridin-4-yl)-7H-pyrrolo[2,3-d]pyrimidine], for which the 50% effective concentration (EC50) in the assay with A431 cells was determined as 32 nM; with H929 cells it was 200 nM.

Take `COc1ccc(F)cc1-c1ncnc2[nH]c(C3=CCN(CC(=O)N(C)C)CC3)cc12` [Example 80, 2-{4-[4-(5-fluoro-2-methoxyphenyl)-7H-pyrrolo[2,3-d]pyrimidin-6-yl]-3,6-dihydropyridin-1(2H)-yl}-N,N-dimethylacetamide]: the EC50 was determined as 130 nM in the assay with A431 cells and 120 nM with H929 cells.

`COc1ccc(F)cc1-c1ncnc2[nH]c(C3=CCN(Cc4ccc(C(=O)O)cc4)CC3)cc12` [Example 72, 4-({4-[4-(5-fluoro-2-methoxyphenyl)-7H-pyrrolo[2,3-d]pyrimidin-6-yl]-3,6-dihydropyridin-1(2H)-yl}methyl)benzoic acid]: the concentration for a half-maximal effect (EC50) with A431 cells is 5200 nM; in the assay on H929 cells, 2400 nM. Further, on CDK9/Cyclin T1, the IC50 worked out at 110 nM.

With `CNC(=O)N1CC=C(c2cc3c(-c4cc(F)ccc4OC)ncnc3[nH]2)CC1` [Example 17, 4-[4-(5-fluoro-2-methoxyphenyl)-7H-pyrrolo[2,3-d]pyrimidin-6-yl]-N-methyl-3,6-dihydropyridine-1(2H)-carboxamide], the EC50 in the assay with A431 cells was 260 nM; in the assay on H929 cells it was 200 nM. Also, on CDK9/Cyclin T1, inhibition was half-maximal at 120 nM (IC50).

In the case of `COc1ccc(F)cc1-c1ncnc2[nH]c(C3=CCN(Cc4ccc(NS(C)(=O)=O)cc4)CC3)cc12` [Example 81, N-[4-({4-[4-(5-fluoro-2-methoxyphenyl)-7H-pyrrolo[2,3-d]pyrimidin-6-yl]-3,6-dihydropyridin-1(2H)-yl}methyl)phenyl]methanesulfonamide], the concentration for a half-maximal effect (EC50) turned out to be 110 nM in the assay with A431 cells and 100 nM in the assay on H929 cells. On CDK9/Cyclin T1, this molecule gave a 50% inhibitory concentration (IC50) of 75 nM.

For the molecule `COc1ccc(F)cc1-c1ncnc2[nH]c(C3=CCN(C(=O)C4CCC(=O)NC4)CC3)cc12` (stereo not shown) [Example 14, 5-({4-[4-(5-fluoro-2-methoxyphenyl)-7H-pyrrolo[2,3-d]pyrimidin-6-yl]-3,6-dihydropyridin-1(2H)-yl}carbonyl)piperidin-2-one], the concentration giving a half-maximal response (EC50) with H929 cells was found to be 1700 nM. This molecule also returned an IC50 at CDK9/Cyclin T1 of 65 nM.

For `COc1ccc(F)cc1-c1ncnc2[nH]c(C3=CCC(F)(F)CC3)cc12` [Example 61, 6-(4,4-difluorocyclohex-1-en-1-yl)-4-(5-fluoro-2-methoxyphenyl)-7H-pyrrolo[2,3-d]pyrimidine], in the assay on H929 cells, the concentration for a half-maximal effect (EC50) came to 1400 nM. For the same molecule, at CDK9/Cyclin T1, the half-maximal inhibitory concentration (IC50) was 62 nM.

With `COc1ccc(F)cc1-c1ncnc2[nH]c(C3=CCN(C(=O)C4CC4)CC3)cc12` [Example 11, cyclopropyl{4-[4-(5-fluoro-2-methoxyphenyl)-7H-pyrrolo[2,3-d]pyrimidin-6-yl]-3,6-dihydropyridin-1(2H)-yl}methanone], the concentration giving a half-maximal response (EC50) with H929 cells was 310 nM. On CDK9/Cyclin T1, this molecule gave a half-maximal inhibitory concentration (IC50) of 43 nM.

As to `Fc1ccc(NCc2ccccc2)cc1-c1ncnc2[nH]c(C3CCNCC3)cc12` [Example 9, N-benzyl-4-fluoro-3-[6-(piperidin-4-yl)-7H-pyrrolo[2,3-d]pyrimidin-4-yl]aniline], the response in the assay with A431 cells was half-maximal at 120 nM (EC50). Besides, on CDK9/Cyclin T1, it took 72 nM to reach half-maximal inhibition (IC50).

The molecule `CS(=O)(=O)N1CC=C(c2cc3c(-c4cc(NCc5ccncc5)ccc4F)ncnc3[nH]2)CC1` [Example 37, 4-fluoro-3-{6-[1-(methylsulfonyl)-1,2,3,6-tetrahydropyridin-4-yl]-7H-pyrrolo[2,3-d]pyrimidin-4-yl}-N-(pyridin-4-ylmethyl)aniline] came in with an EC50 in the assay on H929 cells of 329 nM. In addition, inhibition against CDK9/Cyclin T1 was half-maximal at 51 nM (IC50).
